Data on three molecules can be found in ChEMBL document CHEMBL1159385, “Euphane and tirucallane triterpenes from the roots of Euphorbia kansui and their in vitro effects on the cell division of Xenopus” (2003).

Where only a bound is given, the exact number is not on record here.

Test [1] is filed under the species Xenopus laevis. Kind of test: Induction of cell cleavage arrest in Xenopus laevis blastular stage cells at 10 ug/mL. It is filed as functional, Blastula stage.
Test [2] is filed under the species Xenopus laevis. Kind of test: Growth inhibition of Xenopus laevis blastular stage cells at 10 ug/mL. The settings on record: Blastula stage, read-out: GI. The class given is functional.

In the test listed under Xenopus laevis [1], `CC(C)=CCC[C@H](C)[C@@H]1CC[C@]2(C)C3=C(CC[C@@]12C)[C@@]1(C)CC[C@H](O)C(C)(C)[C@@H]1CC3=O` yielded an Activity greater than 50%.

With `O=c1[nH]cc(F)c(=O)[nH]1` [FLUOROURACIL], in the test listed under Xenopus laevis [2], the inhibition of growth at 10 µg/mL was found to be 47%.

As to `CC(C)=CCC[C@@H](C)[C@@H]1CC[C@]2(C)C3=C(CC[C@@]12C)[C@@]1(C)CC[C@H](O)C(C)(C)[C@@H]1CC3=O` [KANSENONE], the Activity in the test listed under Xenopus laevis [1] is listed as greater than 50%.
